The results in this text go back to patent US20200131142A1, “FARNESOID X RECEPTOR AGONISTS AND USES THEREOF” (Metacrine, Inc., priority 2017, published 2020).

pEC50: −log10 of the molar value.

The experiment addresses T1, hFXR (Homo sapiens, UniProt Q96RI1).
T1 construct: expressed in transfected cells; host or cells: CV-1 cells
T1 sequence (Q96RI1 1-486): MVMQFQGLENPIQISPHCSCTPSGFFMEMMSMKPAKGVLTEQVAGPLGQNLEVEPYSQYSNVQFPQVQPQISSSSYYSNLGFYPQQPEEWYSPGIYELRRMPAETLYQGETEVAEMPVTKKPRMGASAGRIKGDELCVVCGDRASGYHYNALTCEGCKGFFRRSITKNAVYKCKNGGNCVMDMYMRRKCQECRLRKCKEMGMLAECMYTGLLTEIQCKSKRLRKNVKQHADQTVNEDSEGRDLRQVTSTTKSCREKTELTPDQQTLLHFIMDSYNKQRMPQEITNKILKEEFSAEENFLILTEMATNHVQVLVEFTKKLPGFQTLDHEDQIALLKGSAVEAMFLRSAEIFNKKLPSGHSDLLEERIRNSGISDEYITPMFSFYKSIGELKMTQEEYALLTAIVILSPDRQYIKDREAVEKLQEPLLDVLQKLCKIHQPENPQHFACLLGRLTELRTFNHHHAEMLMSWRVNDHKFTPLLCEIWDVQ
T1 sequence (P19793 1-462 partner): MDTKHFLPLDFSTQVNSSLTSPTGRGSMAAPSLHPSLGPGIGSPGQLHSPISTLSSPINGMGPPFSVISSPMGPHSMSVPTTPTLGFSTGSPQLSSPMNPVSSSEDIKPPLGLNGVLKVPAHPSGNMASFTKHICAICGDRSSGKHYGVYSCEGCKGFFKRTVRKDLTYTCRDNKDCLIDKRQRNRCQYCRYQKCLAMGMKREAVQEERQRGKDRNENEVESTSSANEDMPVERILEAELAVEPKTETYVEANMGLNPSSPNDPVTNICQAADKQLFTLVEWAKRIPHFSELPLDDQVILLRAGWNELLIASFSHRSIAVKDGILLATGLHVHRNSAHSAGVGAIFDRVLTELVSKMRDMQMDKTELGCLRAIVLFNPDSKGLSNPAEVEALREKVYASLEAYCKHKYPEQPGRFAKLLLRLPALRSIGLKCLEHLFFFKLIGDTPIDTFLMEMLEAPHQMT
Nature of the experiment: In Vitro FXR Assay (TK): hFXR/hRXR TK-ECRE-luc reporter in transfected CV-1 cells. Format: cell-based. The following applies: 18 hrs incubation, luminescence, compounds with maximum efficacy <25% of the Fexarmine control classified as '+'. Here is the method:
Example B-1: In Vitro FXR Assay (TK)
CV-1 cells were seeded at a density of 2,000,000 cells in a T175 flask with DMEM+10% charcoal double-stripped FBS and incubated at 37° C. in 5% CO2 for 18 h (O/N).
After 18 h of incubation, the medium in the T175 flask was changed with fresh DMEM+10% charcoal super-stripped serum. In a polypropylene tube, 2500 μL OptiMEM (Life Technologies, Cat #31985-062) was combined with expression plasmids for hFXR, hRXR, TK-ECRE-luc and pCMX-YFP. The tube was then briefly vortexed and incubated at room temperature for 5 minutes. Transfection reagent (X-tremeGENE HP from Roche, Cat #06 366 236 001) was added to the OptiMEM/plasmid mixture vortexed and incubated at room temperature for 20 minutes. Following incubation, the transfection reagent/DNA mixture complex was added to cells in the T175 flask and the cells were incubated at 37° C. in 5% CO2 for 18 h (O/N).
Compounds were serially diluted in DMSO and added to transfected CV-1 cells. The cells were then incubated for 18 hrs. The next day cells were lysed and examined for luminescence.

In the case of `COc1ccc([C@H]2CC[C@H](CN(c3cccc(-c4cnc(S(C)(=O)=O)s4)c3)C(=O)[C@H]3CC[C@H](O)CC3)CC2)cc1C` [Compound 7.12, trans-4-Hydroxy-N-((trans-4-(4-methoxy-3-methtylphenyl)cyclohexyl)methyl)-N-(3-(2-(methylsulfonyl)thiazol-5-yl)phenyl)cyclohexanecarboxamide], the pEC50 was 6.00 to 6.60.

`CC#Cc1ncc(-c2cccc(N(C[C@H]3CC[C@H](c4ccc(OC)c(C)c4)CC3)C(=O)[C@H]3CC[C@H](O)CC3)c2)s1` [Compound 7.21, trans-4-Hydroxy-N-((trans-4-(4-methoxy-3-methylphenyl)cyclohexyl)methyl)-N-(3-(2-(prop-1-yn-1-yl)thiazol-5-yl)phenyl)cyclohexanecarboxamide] showed a pEC50 not below 6.60. `COc1ccc([C@H]2CC[C@H](CN(c3cccc(C#Cc4cncs4)c3)C(=O)[C@H]3CC[C@H](O)CC3)CC2)cc1C` [Compound 8.01, trans-4-Hydroxy-N-((trans-4-(4-methoxy-3-methylphenyl)cyclohexyl)methyl)-N-(3-(thiazol-5-ylethynyl)phenyl)cyclohexanecarboxamide]: the pEC50 is not below 6.60. `COc1ncc(-c2cccc(N(C[C@H]3CC[C@H](c4ccc(OC)c(C)c4)CC3)C(=O)[C@H]3CC[C@@H](O)CC3)c2)s1` [Compound 5, cis-4-Hydroxy-N-((trans-4-(4-methoxy-3-methylphenyl)cyclohexyl)methyl)-N-(3-(2-methoxythiazol-5-yl)phenyl)cyclohexanecarboxamide] showed a pEC50 not below 6.60.

`COc1ccc([C@H]2CC[C@H](CN(c3cccc(-c4cnc(C(F)F)s4)c3)C(=O)[C@H]3CC[C@H](O)CC3)CC2)cc1C` [Compound 7.22, trans-N-(3-(2-(Difluoromethyl)thiazol-5-yl)phenyl)-4-hydroxy-N-((trans-4-(4-methoxy-3-methylphenyl)cyclohexyl)methyl) cyclohexanecarboxamide] had a pEC50 not below 6.60. The value for `COc1ccc([C@H]2CC[C@H](CN(c3cc(-c4cnc(C5CC5)s4)ccn3)C(=O)[C@H]3CC[C@H](O)CC3)CC2)cc1C#N` [Compound 9.22, trans-N-((trans-4-(3-Cyano-4-methoxyphenyl)cyclohexyl)methyl)-N-(4-(2-cyclopropylthiazol-5-yl)pyridin-2-yl)-4-hydroxycyclohexanecarboxamide] was not below 6.60; that for `COc1ccc([C@H]2CC[C@H](CN(c3cccc(C#Cc4nc(C)cs4)c3)C(=O)[C@H]3CC[C@H](O)CC3)CC2)cc1C` [Compound 8.03, trans-4-Hydroxy-N-((trans-4-(4-methoxy-3-methylphenyl)cyclohexyl)methyl)-N-(3-((4-methylthiazol-2-yl)ethynyl)phenyl)cyclohexanecarboxamide] was not below 6.60. The result for `COc1ncc(-c2cccc(N(C[C@H]3CC[C@@H](c4ccc(OC)c(C)c4)CC3)C(=O)[C@H]3CC[C@H](O)CC3)c2)s1` [Compound 2, trans-4-Hydroxy-N-((cis-4-(4-methoxy-3-methylphenyl)cyclohexyl)methyl)-N-(3-(2-methoxythiazol-5-yl)phenyl)cyclohexanecarboxamide] reads not above 6.00. The value for `COc1ccc([C@H]2CC[C@H](CN(c3cc(-c4cnc(C(C)C)s4)ccn3)C(=O)[C@H]3CC[C@H](O)CC3)CC2)cc1C` [Compound 9.28, trans-4-Hydroxy-N-(4-(2-isoporpylthiazol-5-yl)pyridin-2-yl)-N-((trans-4-(4-methoxy-3-methylphenyl)cyclohexyl)methyl) cyclohexanecarboxamide] was not below 6.60. The molecule `COc1ccc([C@H]2CC[C@H](CN(c3cccc(-c4cnc(OC(F)F)s4)c3)C(=O)[C@H]3CC[C@H](O)CC3)CC2)cc1C` [Compound 9.01, trans-N-(3-(2-(Difluoromethoxy)thiazol-5-yl)phenyl)-4-hydroxy-N-((trans-4-(4-methoxy-3-methylphenyl)cyclohexyl)methyl) cyclohexanecarboxamide] showed a pEC50 not below 6.60. The value for `CN(C)c1ccc([C@H]2CC[C@H](CN(c3cccc(-c4cnc(C5CC5)s4)c3)C(=O)[C@H]3CC[C@H](O)CC3)CC2)cn1` [Compound 9.07, trans-N-(3-(2-Cyclopropylthiazol-5-yl)phenyl)-N-((trans-4-(6-(dimethylamino)pyridin-3-yl)cyclohexyl)methyl)-4-hydroxycyclohexanecarboxamide] was not below 6.60; that for `COc1ncc(-c2cccc(N(C[C@H]3CC[C@H](c4ccc5c(c4)c(F)nn5C)CC3)C(=O)[C@H]3CC[C@H](O)CC3)c2)s1` [Compound 9.10, trans-N-((trans-4-(3-Fluoro-1-methyl-1H-indazol-5-yl)cyclohexyl)methyl)-4-hydroxy-N-(3-(2-methoxythiazol-5-yl)phenyl)cyclohexanecarboxamide] was not below 6.60; that for `Cn1nc(F)c2cc([C@H]3CC[C@H](CN(c4cccc(-c5cnc(C6CC6)s5)c4)C(=O)[C@H]4CC[C@H](O)CC4)CC3)ccc21` [Compound 9, trans-N-(3-(2-Cyclopropylthiazol-5-yl)phenyl)-N-((trans-4-(3-fluoro-1-methyl-1H-indazol-5-yl)cyclohexyl)methyl)-4-hydroxycyclohexanecarboxamide] was not below 6.60. For the molecule `COc1ncc(-c2cccc(N(C[C@H]3CC[C@H](c4ccc(OC)c(C)c4)CC3)C(=O)[C@H]3CC[C@H](N)CC3)c2)s1` [Compound 13.01, trans-4-Amino-N-((trans-4-(4-methoxy-3-methylphenyl)cyclohexyl)methyl)-N-(3-(2-methoxythiazol-5-yl)phenyl)cyclohexanecarboxamide], the pEC50 is not above 6.00. The value for `COc1ccc([C@H]2CC[C@H](CN(c3cccc(CNc4nccs4)c3)C(=O)[C@H]3CC[C@H](O)CC3)CC2)cc1C` [Compound 14, trans-4-Hydroxy-N-((trans-4-(4-methoxy-3-methylphenyl)cyclohexyl)methyl)-N-(3-((thiazol-2-ylamino)methyl)phenyl)cyclohexanecarboxamide] was not above 6.00; that for `COc1ccc([C@H]2CC[C@H](CN(c3cc(-c4cnc(C5CC5)s4)ccn3)C(=O)[C@H]3CC[C@H](O)CC3)CC2)cc1C` [Compound 6.04, trans-N-(4-(2-cyclopropylthiazol-5-yl)pyridin-2-yl)-4-hydroxy-N-((trans-4-(4-methoxy-3-methylphenyl)cyclohexyl)methyl) cyclohexanecarboxamide] was not below 6.60; that for `COc1ccc([C@H]2CC[C@H](CN(c3cccc(-c4cnc(C#N)s4)c3)C(=O)[C@H]3CC[C@H](O)CC3)CC2)cc1C` [Compound 7.26, trans-N-(3-(2-Cyanothiazol-5-yl)phenyl)-4-hydroxy-N-((trans-4-(4-methoxy-3-methylphenyl)cyclohexyl)methyl) cyclohexanecarboxamide] was 6.00 to 6.60. The result for `COc1ccc([C@H]2CC[C@H](CN(c3cccc(-c4cnc(C(C)=O)s4)c3)C(=O)[C@H]3CC[C@H](O)CC3)CC2)cc1C` [Compound 7.24, trans-N-(3-(2-Acetylthiazol-5-yl)phenyl)-4-hydroxy-N-((trans-4-(4-methoxy-3-methylphenyl)cyclohexyl)methyl) cyclohexanecarboxamide] reads 6.00 to 6.60.

In general, pEC50 refers to −log10 of the EC50, conventionally taken in molar units.
